# The RepoRT retention time repository
# Test: Waters SunFire C18, 150 × 2.1 mm, 3.5 µm, 25 °C, 0.25 mL/min, estimated dead time 1.3 min; A: water + 0.1% formic acid; B: methanol; gradient (min/%B) 0/5 30/100
# Details: stereoisomer not certain
row,LC retention time [min],SMILES
1,12.6,CC=C1CN(C)C2Cc3c([nH]c4ccccc34)C(c3ccc4c(CCN)c[nH]c4c3)CC1C2C(=O)OC (centres undefined)
2,21.5,Cc1[nH]ccc2c(C)c3nc4ccccc4c3cc12
3,14.2,C=CC(CO)C1CC[N+]2(C)CCc3c([nH]c4ccccc34)C2C1 (centres undefined)
4,16.7,CCC12C=CCN3CCC4(C(=C(C(=O)OC)C1)Nc1cc(O)c(C5C=CC6(CC)CC(C(=O)OC)=C7Nc8c(O)cccc8C78CCN5C68)cc14)C32 (centres undefined)
5,16.6,CCC1CN2CCc3c([nH]c4cc(OC)c(OC)cc34)C2CC1CCO (centres undefined)
6,9.26,C=C1c2[nH]c3ccccc3c2CN2CCC1C(=CC)C2 (centres undefined)
7,22.1,O=c1c2cncc3c2c(c2n1CCc1c-2[nH]c2ccccc12)C=C3
8,15.1,CCC12CCCN(CCc3c([nH]c4ccccc34)CC1)C2 (centres undefined)
9,27.3,CC1OC=C2C(=O)N3CCc4c([nH]c5ccccc45)C3CC2C1C=O (centres undefined)
10,18.3,C=Cc1cncc2c(=O)n3c(cc12)-c1[nH]c2ccccc2c1CC3
11,18.3,CC=C1CN2CCc3c([nH]c4ccccc34)C2CC1C(C=O)C(=O)OC (centres undefined)
12,13.2,COC(=O)C1=COC(C)C2Cn3ccc4c5ccccc5nc-4c3CC12 (centres undefined)
13,13.8,CC=C1CN2CCC34C(=O)c5cc6c(cc5OC35C2CC1C(C(=O)OC)N5c1ccccc14)NC12CCC3(CC)CCC[N+]1(CCC62O)C3 (centres undefined)
14,8.71,C=CC1CN2CCC3(C(=O)Nc4c3ccc(O)c4C3CCCN3C)C2CC1CC1c2[nH]c3ccccc3c2CCN1C (centres undefined)
15,13.4,CC=C1CNC2Cc3c([nH]c4ccccc34)C(=O)CC1C2C(=O)OC (centres undefined)
16,22.6,CCC1CN(C)C2Cc3c([nH]c4ccccc34)C(c3cc4c5c([nH]c4cc3OC)C3(C(=O)OC)CC4CC(CC)C3N(CC5)C4=O)CC1C2C(=O)OC (centres undefined)
17,10.1,O=C1CC(O)C2C3CC4N(CCC45c4ccccc4N1C25)CC3=CCO (centres undefined)
18,29.9,COC(=O)C1(COC(=O)C=Cc2ccccc2)C2CC(N(C)CC23OC3C)C23Nc4ccccc4C21CC(=O)O3 (centres undefined)
19,14.2,C=C1C2CC(=O)c3[nH]c4ccccc4c3C1N(C)CC2=CC (centres undefined)
20,16.3,CCC1CN2CCC34C5=C(CC6(CC7CC(CC)N8CCC9(C6=Nc6ccccc69)C78)CN5c5ccccc53)C1CC24 (centres undefined)
21,16.5,CC=C1CN2CCC3(O)c4ccccc4N4C=C(C(=O)OC)C1CC2C43O (centres undefined)
22,14.4,CCC1=CN2CCC3=c4ccccc4=NC3=C2C=C1

row,LC retention time [min],SMILES
1,13.4,CC=C1C[N+]2([O-])CCC34Cc5cc6c(cc5OC35C2CC1C(C(=O)OC)N5c1ccccc14)NC12CCC3(CC)CCC[N+]1(CCC62O)C3 (centres undefined)
2,13.7,C=CC1CN2CCC1CC2C(O)c1ccnc2ccc(OC)cc12 (centres undefined)
3,18.5,C=CC(CO)C1CCN2CCc3c([nH]c4ccccc34)C2C1 (centres undefined)
4,14.1,CCC1CN2CCc3c([nH]c4ccccc34)C2CC1CCO (centres undefined)
5,15.8,CC=C1CN2C3CC1C1(C(=O)OC)C2CC2(c4cc(O)ccc4N(C)C32)C1OC(=O)c1cc(OC)c(OC)c(OC)c1 (centres undefined)
6,15.3,CC=C1C2CC[N+]3([O-])CCC4(C(=C2C(=O)OC)Nc2ccccc24)C13 (centres undefined)
7,15.3,CC=C1CN2C(C3=CC4C5CC6N(CCC67c6ccccc6N(C3=O)C47)CC5=CCO)CC34c5ccccc5N5C(=O)CC=C(C1CC23)C54 (centres undefined)
8,17.8,CC=C1CN2C3CC1C1(C(=O)OC)C2CC2(c4ccccc4N(C)C32)C1OC(=O)C=Cc1cc(OC)c(OC)c(OC)c1 (centres undefined)
9,16.3,CCC1CN(C)C2Cc3c([nH]c4ccccc34)C(O)(c3cc4c5c([nH]c4cc3OC)C3(C(=O)OC)CC4CC(CC)C3N(CC5)C4)CC1C2C(=O)OC (centres undefined)
10,15.5,CC=C1C[N+]2(C)CCc3c([nH]c4ccccc34)C2CC1Cc1nccc2c1[nH]c1ccccc12 (centres undefined)
11,14.7,CC=C1CN2CCC34Cc5cc6c7c([nH]c6cc5OC35C2CC1C(C(=O)OC)N5c1ccccc14)CCC1(CC)CCCN(CC7)C1 (centres undefined)
12,13.8,CC=C1CN2C3CC1C(C1OCC4C5CC6N(CCC67c6ccccc6N1C47)CC5CC)C2Cc1c3[nH]c2ccccc12 (centres undefined)
13,15.3,CC=C1CN(C)C2Cc3c([nH]c4ccccc34)C(=O)CC1C2C(=O)OC (centres undefined)
14,18.6,CCC1(O)CC2CN(CCc3c([nH]c4ccccc34)C(C(=O)OC)(c3cc4c(cc3OC)N(C)C3C(O)(C(=O)OC)C(OC(C)=O)C5(CC)C=CCN6CCC43C65)C2)C1 (centres undefined)
15,14.4,CCC1CN2CCc3c([nH]c4ccccc34)C2CC1CC=O (centres undefined)
16,14.8,C=CC1CN2CCc3c([nH]c4ccccc34)C2CC1CC1c2[nH]c3ccccc3c2CCN1C (centres undefined)
17,13.6,C=CC1CN2CCc3c([nH]c4ccc(O)cc34)C2CC1CC1c2[nH]c3ccccc3c2CCN1C (centres undefined)
18,15.3,CC=C1CN(C)C2Cc3c([nH]c4ccccc34)C(c3ccc4c5c([nH]c4c3)C3CC4CC(CC)C3N(CC5)C4)CC1C2C(=O)OC (centres undefined)
19,14.3,CC=C1CN(C)CC2Cc3c([nH]c4ccccc34)C(=O)CC12 (centres undefined)
20,13.3,C=CC1CN2CCc3c([nH]c4cc(O)ccc34)C2CC1CC1c2[nH]c3ccccc3c2CCN1C (centres undefined)
21,20,CCC12CCCN3CCc4c(n(c5ccccc45)C(O)(C(=O)OC)C1)C32 (centres undefined)
22,18.2,CC=C1CN2CCC3=C([NH2+]c4ccccc43)C2CC1C(Cc1cn2c(c3nc4ccccc4c1-3)CC1C(C(=O)OC)=COC(C)C1C2)C(=O)OC (centres undefined)

# Continued, molecule first:
row,SMILES,LC retention time [min]
1,O=C1CC2OCC=C3CN4CCC56c7ccccc7N1C5C2C3CC46 (centres undefined),11
2,CC=C1CN2C3CC1C1(C(=O)OC)C2CC2(c4ccccc4N(C)C32)C1O (centres undefined),12
3,CC=C1CN2CCC34c5cc(-c6cc7c(cc6OC)C68CCN9CC(=CC)C(CCC96N7C)C8C(=O)OC)c(OC)cc5N(C)C3C2CC1C4C(=O)OC (centres undefined),16.9
4,CC=C1CN2C(C3C(=O)N4c5ccccc5C56CCN7CC8=CCOC3C(C8CC75)C46)CC34c5ccccc5N5C(=O)C=CC(C1CC23)C54 (centres undefined),16.3
5,CC1OCC2C3CC4(O)N(CCC45c4ccccc4N(C(=O)CO)C25)CC13 (centres undefined),11.8
6,CC=C1CN(C)CCC23C(=O)CC1C1COC(O)C(=O)N(c4ccccc42)C13 (centres undefined),12.1
7,CCC1(O)C(=O)OCc2c1cc1n(c2=O)Cc2cc3ccccc3nc2-1 (centres undefined),27.2
8,COC(=O)C1CC23CCC[N+]4([O-])CCC5(c6ccccc6N(C(=O)OC)C15CC2)C34 (centres undefined),17.2
9,CC=C1CN2C3CC45c6ccccc6N(C)C4C2CC1C3C5OC(=O)c1cc(OC)c(OC)c(OC)c1 (centres undefined),22.6
10,COC(=O)C1=C2Nc3ccccc3C23CCN2CC4(CC5CC67CCOC6CCN6CCC8(c9cccc(OC)c9N(C4)C58O)C67)C4OCCC4(C1)C23 (centres undefined),23.3
11,CC=C1C[n+]2ccc3c([nH]c4ccccc43)c2CC1C1=CN2c3ccccc3C34CCN5CC(=CC)C(CC53)C(C1O)C24 (centres undefined),15.2
12,COc1ccc2c(c1)N1C(=O)CC3OCC=C4CN5CCC26C5CC4C3C16 (centres undefined),16.8
13,CCC1CC2CC3c4[nH]c5cc(OC)ccc5c4CCN(C2)C13 (centres undefined),18.6
14,COc1cc2c(cc1OC)C13CCN(C)CC45OC4COC4CC(=O)N2C1C4C5CC3=O (centres undefined),10.1
15,CC=C1CN2C3CC1C(CO)(C(=O)OC)C2Cc1c3n(C)c2ccccc12 (centres undefined),14.2
16,CCC1CN2CCc3c([nH]c4ccccc34)C2CC1C(=COC)C(=O)OC (centres undefined),16.8
17,C=CC12C=CCN3CCC4(c5ccccc5NC(=O)C4C1)C32 (centres undefined),11.7
18,CC=C1C[N+]2(C)CCC34c5ccccc5NC32C(O)CC1C4(CO)C(=O)OC (centres undefined),13.4
19,CCC12C=CCN3CCC4(C(=C(C(=O)OC)C1)Nc1ccccc14)C32 (centres undefined),18.2
20,CCC1CN(C)CC2(C(=O)OC)Cc3c([nH]c4ccccc34)C(=O)CC12 (centres undefined),15

row,SMILES,LC retention time [min]
1,COC(=O)C1CC23CCCN4CCC5(c6ccccc6N(C)C15CC2)C43 (centres undefined),17.2
2,COC(=O)C1=C2Nc3ccccc3C23CCN2CC(C(C)O)C1CC23 (centres undefined),10.8
3,CCC1CC2CN3CCc4c([nH]c5ccc(OC)cc45)C(C(=O)OC)(C2)C13 (centres undefined),16.8
4,COc1cc2c(cc1OC)C13CCN4CC5=CCOC6CC(=O)N2C1C6C5CC43 (centres undefined),12.9
5,O=C1CC2OCC=C3CN4CCC56c7ccccc7N1C5C2C3CC46O (centres undefined),13.3
6,CC=C1CN2C3CC1C(CO)(C(=O)OC)C2Cc1c3[nH]c2ccccc12 (centres undefined),12.9
7,c1ccc2c(c1)NC13CCC4(CCCN5CCC21C54)CC3 (centres undefined),19.5
8,CC=C1CN2C3CC1C(C=O)C2Cc1c3[nH]c2ccccc12 (centres undefined),14.7
9,CC=C1CN(C)C2Cc3c([nH]c4ccccc34)C(c3cc4[nH]c5c(c4cc3OC)CCN3CC4CC(CC)C3C5(C(=O)OC)C4)CC1C2C(=O)OC (centres undefined),17.5
10,CC=C1C[N+]2(C)C3CC1C(C(=O)[O-])C2Cc1c3[nH]c2ccccc12 (centres undefined),15.6
11,COC(=O)C1=COC(C)C2CN3CCC4(C(=O)Nc5cc(OC)c(OC)cc54)C3CC12 (centres undefined),15.8
12,COC(=O)C1CC23CCCN4CCC5(c6ccccc6N(C(=O)OC)C15CC2)C43 (centres undefined),26.9
13,CC=C1C[N+]2(C)CCC34C(=C(C=O)C1CC32)Nc1ccccc14 (centres undefined),11.3
14,CC1OCC2C3CC(=O)C4(CCN(C)CC13)c1ccccc1NC24 (centres undefined),15.9
15,CCC1CC2CN3CCc4c([nH]c5ccccc45)C(C(=O)OC)(C2)C13 (centres undefined),16.9
16,CC=C1CN2C3CC1C(C(=O)OC)C2Cc1c3[nH]c2ccccc12 (centres undefined),16.2
17,COc1cc2c(cc1OC)C13CCN(C)CC4=CCOC5CC(=O)N2C1C5C4CC3=O (centres undefined),13.1
18,COC(=O)N1c2ccccc2C23CCN4C(=O)C=CC45CCC12C(C5)C(=O)O3 (centres undefined),24.1
19,C=CC1C(OC2OC(CO)C(O)C(O)C2O)OC=C(C(=O)OC)C1CC1NCCc2c1[nH]c1ccccc21 (centres undefined),17
20,OC1OCC=C2CN3CCC45c6ccccc6NC4C1C2CC35 (centres undefined),9.62
